Data from patent publication US12029724B2, “Method for inhibiting tumor growth” (Eisai R&D Management Co., Ltd., priority 2016, dated 2024).
Structures can show the parent of a compound that is named as a salt.

Experiments:
[1] = test system: OMC9 sarcoma (leiomyosarcoma); assay: anti-tumor activity, OMC9 xenograft in nude mice; assay type: in vivo, human; conditions: OMC9 model, BALB/c nu/nu mice, i.v. day 0 and day 7, start tumor volume 150 mm^3, log RTV, day 7-day 35
Description: (§1) Cancer cell lines were purchased from the Riken Bioresource Center (RBC, Japan (Ibaraki)), American Type Culture Collection (ATCC, USA (Manassas, Va.)), Deutsche Sammlung von Mikroorganismen and Zellkulturen GmbH (German Collection of Microorganisms and Cell Cultures GmbH: DSMZ, Germany (Braunschweig)), Health Science Research Resource Bank (HSRRB, Japan (Osaka)), and the DS Pharma Biomedical Co., Ltd. (DS-Pharma, Japan (Osaka)), and were kindly donated by the Kyushu Cancer Center, Kagoshima University, and the Cell Resource Center for Biomedical Research of the Institute of Development, Aging, and Cancer of Tohoku University.
(§2) In the tables, the cancer cell lines to which “*” is added in the “acclimation” column were obtained from grown tumors which were formed by subcutaneously inoculating each cancer cell line to a mouse in advance.
(§3) On the initial day of inoculation, the cancer cells were harvested by trypsinization and were washed and suspended using the particular medium. Some of the harvested cancer cells were then mixed with GelTrex (Gibco, #12760-021 or A14132-02) at 1:1. […]
(§4) The tumor size was measured over time with a caliper, and the tumor volume was determined based on the following calculation formula. tumor volume (mm^3)=length (mm)×square of width (mm^2)×½ […]

[2] = test system: UM-UC-3 urothelial cancer (bladder cancer); assay: anti-tumor activity, UM-UC-3 xenograft in nude mice; assay type: in vivo, human
Description: as §1, §2, §3, §4

[3] = test system: MES-SA sarcoma (leiomyosarcoma); assay: anti-tumor activity, MES-SA xenograft in nude mice; assay type: in vivo, human
Description: as §1, §2, §3, §4

[4] = test system: BXPC-3 pancreatic cancer; assay: anti-tumor activity, BXPC-3 xenograft in nude mice; assay type: in vivo, human; conditions: BXPC-3 model, i.v. day 0 and day 7, start tumor volume 120 mm^3, log RTV, day 7-day 21
Description: as §1, §2, §3, §4

[5] = test system: HEC-151 uterine cancer (endometrial cancer); assay: anti-tumor activity, HEC-151 xenograft in nude mice; assay type: in vivo, human; conditions: HEC-151 model, i.v. day 0 and day 7, start tumor volume 220 mm^3, log RTV, day 3-day 14
Description: as §1, §2, §3, §4

[6] = test system: human xenograft models; assay: anti-tumor activity, summary over the 18 human xenograft models; assay type: in vivo; conditions: in all 18 human xenograft models, RM-ANOVA using log RTV, P<0.05
Description: as §1, §2, §3, §4

[7] = test system: A673 sarcoma (Ewing sarcoma); assay: anti-tumor activity, A673 xenograft in nude mice; assay type: in vivo, human; conditions: A673 model, i.v. day 0 and day 7, start tumor volume 220 mm^3, log RTV, day 4-day 18
Description: as §1, §2, §3, §4

[8] = test system: U251MG brain tumor (glioblastoma); assay: anti-tumor activity, U251MG xenograft in nude mice; assay type: in vivo, human; conditions: U251MG model, i.v. day 0 and day 7, start tumor volume 150 mm^3, log RTV, day 5-day 23
Description: as §1, §2
(§5) On the initial day of inoculation, the cancer cells were harvested by trypsinization and were washed and suspended using the particular medium. Some of the harvested cancer cells were then mixed with GelTrex (Gibco, #12760-021 or A14132-02) at 1:1. Using a 26-gauge syringe needle, these cells were inoculated at a volume of 0.1 mL into the vicinity of the right axillary region of mice (BALB/c nu/nu). […]

[9] = test system: SK-LMS-1 sarcoma (leiomyosarcoma); assay: anti-tumor activity, SK-LMS-1 xenograft in nude mice; assay type: in vivo, human; conditions: SK-LMS-1 model, i.v. day 0 and day 7, start tumor volume 290 mm^3, log RTV, day 2-day 7
Description: as §1, §2, §3, §4

[10] = test system: AsPC-1 pancreatic cancer; assay: anti-tumor activity, AsPC-1 xenograft in nude mice; assay type: in vivo, human; conditions: AsPC-1 model, i.v. day 0 and day 7, start tumor volume 380 mm^3, log RTV, day 3-day 35
Description: as §1, §2, §3, §4

[11] = test system: Hs746T stomach cancer; assay: anti-tumor activity, Hs746T xenograft in nude mice; assay type: in vivo, human; conditions: Hs746T model, i.v. day 0 and day 7, start tumor volume 180 mm^3, log RTV, day 4-day 11
Description: as §1, §2, §3, §4

[12] = test system: PLC/PRF/5 liver cancer (hepatocellular carcinoma); assay: anti-tumor activity, PLC/PRF/5 xenograft in nude mice; assay type: in vivo, human; conditions: PLC/PRF/5 model, i.v. day 0 and day 7, start tumor volume 180 mm^3, log RTV, day 4-day 18
Description: as §1, §2, §3, §4

[13] = test system: K1 thyroid cancer; assay: anti-tumor activity, K1 xenograft in nude mice; assay type: in vivo, human; conditions: K1 model, i.v. day 0 and day 7, start tumor volume 390 mm^3, log RTV, day 3-day 17
Description: as §1, §2, §3, §4

[14] = test system: MFE-296 uterine cancer (endometrial cancer); assay: anti-tumor activity, MFE-296 xenograft in nude mice; assay type: in vivo, human; conditions: MFE-296 model, i.v. day 0 and day 7, start tumor volume 200 mm^3, log RTV, day 4-day 14
Description: as §1, §2, §3, §4

[15] = test system: KP-1 pancreatic cancer; assay: anti-tumor activity, KP-1 xenograft in nude mice; assay type: in vivo, human; conditions: KP-1 model, i.v. day 0 and day 7, start tumor volume 200 mm^3, log RTV, day 3-day 14
Description: as §1, §2, §5

[16] = test system: KB (HeLa) uterine cancer (cervical cancer); assay: anti-tumor activity, KB (HeLa) xenograft in nude mice; assay type: in vivo, human; conditions: KB (HeLa) model, i.v. day 0 and day 7, start tumor volume 150 mm^3, log RTV, day 7-day 14
Description: as §1, §2
The KB cells indicated as a cancer cell line in Table 2 were originally thought to be derived from an epithelial cancer. […] In addition, ITS-G supplement (Wako Pure Chemical Industries, Ltd., #090-06741) was used as the ITS. […]
as §4

[17] = test system: SK-UT-1 sarcoma (leiomyosarcoma); assay: anti-tumor activity, SK-UT-1 xenograft in nude mice; assay type: in vivo, human; conditions: day 3-day 10
Description: as §1, §2, §3, §4

[18] = test system: ECC-1 uterine cancer (endometrial cancer); assay: anti-tumor activity, ECC-1 xenograft in nude mice; assay type: in vivo, human; conditions: ECC-1 model, i.v. day 0 and day 7, start tumor volume 160 mm^3, log RTV, day 4-day 19
Description: as §1, §2, §3, §4

[19] = test system: MFE-280 uterine cancer (endometrial cancer); assay: anti-tumor activity, MFE-280 xenograft in nude mice; assay type: in vivo, human; conditions: MFE-280 model, i.v. day 0 and day 7, start tumor volume 200 mm^3, log RTV, day 4-day 14
Description: as §1, §2, §3, §4

C=C1C[C@@H]2CC[C@@]34C[C@H]5O[C@H]6[C@@H](O3)[C@H]3O[C@H](CC[C@@H]3O[C@H]6[C@H]5O4)CC(=O)C[C@@H]3[C@@H](OC)[C@@H](C[C@H](O)CN)O[C@H]3C[C@H]3O[C@@H](CC[C@@H]1O2)C[C@@H](C)C3=C [E7389, eribulin mesylate]
RM-ANOVA E7389 vs vehicle [1]: Yes 1 | RM-ANOVA E7389 vs vehicle ([2]; UM-UC-3 model (Table 2 conditions), i.v. day 0 and day 7, start tumor volume 230 mm^3, log RTV, day 3-day 10): Yes 1 | RM-ANOVA E7389 vs vehicle ([2]; UM-UC-3 model (Table 3 conditions), i.v. day 0 and day 7, start tumor volume 190 mm^3, log RTV, day 3-day 14): Yes 1 | RM-ANOVA E7389 vs vehicle ([3]; MES-SA model (Table 2 conditions), i.v. day 0 and day 7, start tumor volume 190 mm^3, log RTV, day 4-day 18): Yes 1 | RM-ANOVA E7389 vs vehicle ([3]; MES-SA model (Table 3 conditions), i.v. day 0 and day 7, start tumor volume 420 mm^3, log RTV, day 3-day 7): Yes 1 | RM-ANOVA E7389 vs vehicle [4]: Yes 1 | RM-ANOVA E7389 vs vehicle [5]: Yes 1 | anti-tumor activity compared to the vehicle group [6]: statistically significant | RM-ANOVA E7389 vs vehicle [7]: Yes 1 | RM-ANOVA E7389 vs vehicle [8]: Yes 1 | RM-ANOVA E7389 vs vehicle [9]: Yes 1 | RM-ANOVA E7389 vs vehicle [10]: Yes 1 | RM-ANOVA E7389 vs vehicle [11]: Yes 1 | RM-ANOVA E7389 vs vehicle [12]: Yes 1 | RM-ANOVA E7389 vs vehicle [13]: Yes 1 | RM-ANOVA E7389 vs vehicle [14]: Yes 1 | RM-ANOVA E7389 vs vehicle [15]: Yes 1 | RM-ANOVA E7389 vs vehicle [16]: Yes 1 | RM-ANOVA E7389 vs vehicle ([17]; SK-UT-1 model (Table 2 conditions), i.v. day 0 and day 7, start tumor volume 260 mm^3, log RTV): Yes 1 | RM-ANOVA E7389 vs vehicle ([17]; SK-UT-1 model (Table 3 conditions), i.v. day 0 and day 7, start tumor volume 290 mm^3, log RTV): Yes 1 | RM-ANOVA E7389 vs vehicle [18]: Yes 1 | RM-ANOVA E7389 vs vehicle [19]: Yes 1
